Literature values, collected in patent publication US20060122127A1, “Methods for reducing the side effects associated with mirtzapine treatment” (Cypress Bioscience, Inc., priority 2004, published 2006).

What was measured:
[1] = test system: tonic extension seizures induced by maximal electroshock; conditions: animals
[2] = 100-200 mg/d, patients with neuropathic pain
[3] = test system: clonic seizures induced by subcutaneous pentylenetetrazol; conditions: animals
[4] = obese patients

SMILES | anticonvulsant activity against tonic extension seizures [1] | patients whose subjective ratings of pain improved by at least 50% [2] [%] | anticonvulsant activity against clonic seizures [3] | loss of body weight ([4]; 32 week extension phase (placebo 1.8% loss)) [%] | reduction of body weight ([4]; following 16 weeks of therapy (placebo 1% loss)) [%] | patients with weight gain of greater than or equal to 7% of body weight (controlled studies (placebo 0%)) [%] | patients reporting appetite increase (controlled studies (placebo 2%)) [%]
NS(=O)(=O)Cc1noc2ccccc12 [zonisamide, 1,2-benzisoxazole-3-methanesulfonamide] | effective | 59 | ineffective | 9.4 | 6 | – | –
CN(C)CCC=C1c2ccccc2CCc2ccccc21 [amitriptyline] | – | – | – | – | – | 5.9 | 6
